Values of other authors as cited in US11427542B2, “Compounds for treatment of cardiac arrhythmias and heart failure” (Elex Biotech, Inc., priority 2018, dated 2022).

Test system: R176Q/+ mice
Details: cardiac pacing, versus placebo-treated

Structure (SMILES): CCCCNc1ccc(C(=O)OCCN(CC)CC)c(OC)c1 [Compound 1]
- arrhythmic development (bidirectional VT / sustained polymorphic VT) following pacing: protected from arrhythmic development following pacing
